In patent US6838236B1, “VPR function and activity” (priority 1993, dated 2005):

Legend:
HIV-1 p24^gag antigen = experiment: HIV-1 p24gag antigen production, antigen-capture ELISA of culture medium; format: cell-based
[1] = test system: human rhabdomyosarcoma cell line TE671; details: well-described phenomenon; cited from earlier work
[2] = test system: TE671 rhabdomyosarcoma cells; experiment: Biological activity of baculovirus vpr supernatant on TE671 cells; format: cell-based, human
Excerpt: Recombinant vpr protein can be tested for biological activity in tissue culture. Vpr and control supernatants were dialyzed against PBS and applied to TE671 rhabdomyosarcoma cells. TE671 cells differentiate and cease to proliferate when transfected with the vpr gene or infected with HIV (Gras-Masse et al., supra; Levy et al., supra). […] Cells exposed to vpr for 3 days were examined for the presence of adult muscle myosin, a differentiation marker for these cells (Aguanno et al., Cancer Res., 1990, 50, 3377).

OM-10.1 cells = experiment: Intracellular p24 fluorescence in OM-10.1 cells; format: cell-based; details: vpr supernatant versus control supernatant
Experimental: In other experiments, OM-10.1 cells, which are T lymphoid in origin, were treated with either control supernatant lacking vpr or vpr supernatant from baculovirus-infected cells. Cells are shown in visible light and stained for intracellular p24 detected by fluorescence microscopy. The intensity of fluorescence is a measure of the virus expression.

[3] = continuous exposure to 20% vpr supernatant

| Compound | increase in p24 release (HIV-1 p24^gag antigen; pNLpuroΔvpr-transfected cells exposed to phorbol ester) | p24 release (HIV-1 p24^gag antigen; undifferentiated pNLpuro-transfected cells exposed to phorbol ester) | morphology and growth of stimulated TE671 cells [1] | time to cessation of proliferation [2, 3] | time to morphological differentiation [2, 3] | effect on cell survival ([2]; exposure to greater than 20% supernatant) | retrovirus expression, intracellular p24 fluorescence (OM-10.1 cells) |
| --- | --- | --- | --- | --- | --- | --- | --- |
| CCCCCCCCCCCCCC(=O)O[C@@H]1[C@@H](C)[C@@]2(O)[C@@H](C=C(CO)C[C@]3(O)C(=O)C(C)=C[C@@H]23)[C@@H]2C(C)(C)[C@]12OC(C)=O [phorbol myristate acetate] | 3 fold | no measurable p24 release | increase in overall size and length, are often multinucleated, and display slowed proliferation | – | – | – | – |
| vpr protein: HIV-1 viral protein R produced in baculovirus-infected insect cells, used as supernatant or partially purified | – | – | – | approximately 3 days | 7-9 days | rapidly fatal | induces a high level of retrovirus expression |
